Measurements reported in patent US20110104256A1, “METHODS FOR TREATING OR PREVENTING COLORECTAL CANCER” (priority 2008, published 2011).
Marks after values point to notes of the source that are not given here.

Tested on: WiDr human colorectal adenocarcinoma cells
Assay: Inhibition of colorectal tumor growth in WiDr xenograft model
Assay type: in vivo, nude mouse (nu/nu)
Details: for % Growth Inhibition: WiDr xenograft, nude mice
Source text: In these experiments, 5 million WiDr human colorectal adenocarcinoma cells, mixed 1:1 with Matrigel, were inoculated subcutaneously to the flank of each nude mouse (nu/nu).

[1] = Day 10 post inoculation, 0.5 mg anti-IGF1R IP 2x/week, 40 mpk Sunitinib PO QD (Table 6)
[2] = Day 14 post inoculation, 0.5 mg anti-IGF1R IP 2x/week, 40 mpk Sunitinib PO QD (Table 6)
[3] = Day 17 post inoculation, 0.5 mg anti-IGF1R IP 2x/week, 40 mpk Sunitinib PO QD (Table 6)
[4] = Day 21 post inoculation, 0.5 mg anti-IGF1R IP 2x/week, 40 mpk Sunitinib PO QD (Table 6)
[5] = Day 24 post inoculation, 0.5 mg anti-IGF1R IP 2x/week, 40 mpk Sunitinib PO QD (Table 6)
[6] = Day 28 post inoculation, 0.5 mg anti-IGF1R IP 2x/week, 40 mpk Sunitinib PO QD (Table 6)
[7] = Day 35 post inoculation, 0.5 mg anti-IGF1R IP 2x/week, 40 mpk Sunitinib PO QD (Table 6)
[8] = 0.5 mg anti-IGF1R IP 2x/week, 40 mpk Sunitinib PO QD (Table 5)

Row | Compound | Mean tumor volume [1] [mm^3] | Mean tumor volume (Day 10 post inoculation, 0.5 mg anti-IGF1R, 10 mpk Leucovorin/60 mpk 5-FU, IP 2x/week (Table 3)) [mm^3] | Mean tumor volume [2] [mm^3] | Mean tumor volume (Day 14 post inoculation, 0.5 mg anti-IGF1R, 10 mpk Leucovorin/60 mpk 5-FU, IP 2x/week (Table 3)) [mm^3] | Mean tumor volume [3] [mm^3] | Mean tumor volume (Day 17 post inoculation, 0.5 mg anti-IGF1R, 10 mpk Leucovorin/60 mpk 5-FU, IP 2x/week (Table 3)) [mm^3] | Mean tumor volume [4] [mm^3] | Mean tumor volume (Day 21 post inoculation, 0.5 mg anti-IGF1R, 10 mpk Leucovorin/60 mpk 5-FU, IP 2x/week (Table 3)) [mm^3] | Mean tumor volume [5] [mm^3] | Mean tumor volume (Day 24 post inoculation, 0.5 mg anti-IGF1R, 10 mpk Leucovorin/60 mpk 5-FU, IP 2x/week (Table 3)) [mm^3] | Mean tumor volume [6] [mm^3] | Mean tumor volume (Day 28 post inoculation, 0.5 mg anti-IGF1R, 10 mpk Leucovorin/60 mpk 5-FU, IP 2x/week (Table 3)) [mm^3] | Mean tumor volume (Day 31 post inoculation, 0.5 mg anti-IGF1R IP 2x/week, 40 mpk Sunitinib PO QD (Table 6)) [mm^3] | Mean tumor volume (Day 31 post inoculation, 0.5 mg anti-IGF1R, 10 mpk Leucovorin/60 mpk 5-FU, IP 2x/week (Table 3)) [mm^3] | Mean tumor volume [7] [mm^3] | Mean tumor volume (Day 35 post inoculation, 0.5 mg anti-IGF1R, 10 mpk Leucovorin/60 mpk 5-FU, IP 2x/week (Table 3)) [mm^3] | % Growth Inhibition [8] | % Growth Inhibition (0.5 mg anti-IGF1R IP 2x/week, 60 mpk 5-FU/10 mpk Leucovorin IP 2x/week (Table 2)) [%]
1 | anti-IGF1R: anti-IGF1R antibody with 15H12/19D12 immunoglobulin light chain-F (LCF, κ) and heavy chain-A (HCA, γ1) | 93.1 | 93.1 | 148.0 | 148.0 | 192.0 | 192.0 | 254.1 | 254.1 | 317.0 | 317.0 | 403.1 | 403.1 | 474.5 | 474.5 | 577.6 | 577.6 | 30% | 30
2 | CCN(CC)CCNC(=O)c1c(C)[nH]c(/C=C2\C(=O)Nc3ccc(F)cc32)c1C [Sunitinib, sunitinib, reference compound] | 95.8 | – | 125.4 | – | 143.1 | – | 175.6 | – | 194.8 | – | 205.9 | – | – | – | 238.6 | – | 79^a % | –
